Source: patent US12391648B2, “Pyridyloxy thioester derivative and preparation method therefor, herbicidal composition, and application” (Qingdao Kingagroot Chemical Compound Co., Ltd., priority 2018, dated 2025)

System: Abutilon theophrasti
Experiment: Post-emergence test experiment (Table 3, 1000 g/ha)
Type: in vivo
Details: post-emergence spray, after 3 weeks, fresh weight inhibition
How it was run: (§1)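 Activity graded levels 0-5 by fresh-weight inhibition (level 5 above 85%, level 0 below 5%), assessed 3 weeks after treatment. Plants grown in greenhouse pots were sprayed post-emergence at 2-3 leaves using acetone/tween-80 solutions with methyl oleate synergist (1.5 L/ha).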

Structure (SMILES)	Activity level (growth inhibition rate) Abutilon theophrasti
CCCCC(C)SC(=O)C(C)Oc1nc(F)c(Cl)c(N)c1Cl (stereo not drawn) [Compound 151]	5 (Level 5: the growth inhibition rate is greater than 85%)
COC(=O)C(NC(=O)OC(C)(C)C)SC(=O)C(C)Oc1nc(F)c(Cl)c(N)c1Cl (stereo not drawn) [Compound 104]	5 (Level 5: the growth inhibition rate is greater than 85%)
CSC(=O)C(C)Oc1nc(F)c(Cl)c(NC(C)=O)c1Cl (stereo not drawn) [Compound 129]	5 (Level 5: the growth inhibition rate is greater than 85%)
CC(Oc1nc(F)c(Cl)c(N)c1Cl)C(=O)SC(C)C(C)C (stereo not drawn) [Compound 147]	5 (Level 5: the growth inhibition rate is greater than 85%)
CCNc1c(Cl)c(F)nc(OC(C)C(=O)SC)c1Cl (stereo not drawn) [Compound 128]	5 (Level 5: the growth inhibition rate is greater than 85%)
COC(=O)C(C)SC(=O)C(C)Oc1nc(F)c(Cl)c(N)c1Cl (stereo not drawn) [Compound 95]	5 (Level 5: the growth inhibition rate is greater than 85%)

System: Digitaria sanguinalis
Experiment: as above
Type: in vivo
Details: post-emergence spray, after 3 weeks, fresh weight inhibition
How it was run: as §1

Structure (SMILES)	Activity level (growth inhibition rate) Digitaria sanguinalis
CCCCC(C)SC(=O)C(C)Oc1nc(F)c(Cl)c(N)c1Cl (stereo not drawn) [Compound 151]	5 (Level 5: the growth inhibition rate is greater than 85%)
COC(=O)C(NC(=O)OC(C)(C)C)SC(=O)C(C)Oc1nc(F)c(Cl)c(N)c1Cl (stereo not drawn) [Compound 104]	5 (Level 5: the growth inhibition rate is greater than 85%)
CSC(=O)C(C)Oc1nc(F)c(Cl)c(NC(C)=O)c1Cl (stereo not drawn) [Compound 129]	5 (Level 5: the growth inhibition rate is greater than 85%)
CC(Oc1nc(F)c(Cl)c(N)c1Cl)C(=O)SC(C)C(C)C (stereo not drawn) [Compound 147]	5 (Level 5: the growth inhibition rate is greater than 85%)
CCNc1c(Cl)c(F)nc(OC(C)C(=O)SC)c1Cl (stereo not drawn) [Compound 128]	5 (Level 5: the growth inhibition rate is greater than 85%)
COC(=O)C(C)SC(=O)C(C)Oc1nc(F)c(Cl)c(N)c1Cl (stereo not drawn) [Compound 95]	5 (Level 5: the growth inhibition rate is greater than 85%)

System: Galium spurium
Experiment: as above
Type: in vivo
Details: post-emergence spray, after 3 weeks, fresh weight inhibition
How it was run: as §1

Structure (SMILES)	Activity level (growth inhibition rate) Galium spurium
CCCCC(C)SC(=O)C(C)Oc1nc(F)c(Cl)c(N)c1Cl (stereo not drawn) [Compound 151]	5 (Level 5: the growth inhibition rate is greater than 85%)
COC(=O)C(NC(=O)OC(C)(C)C)SC(=O)C(C)Oc1nc(F)c(Cl)c(N)c1Cl (stereo not drawn) [Compound 104]	5 (Level 5: the growth inhibition rate is greater than 85%)
CSC(=O)C(C)Oc1nc(F)c(Cl)c(NC(C)=O)c1Cl (stereo not drawn) [Compound 129]	5 (Level 5: the growth inhibition rate is greater than 85%)
CC(Oc1nc(F)c(Cl)c(N)c1Cl)C(=O)SC(C)C(C)C (stereo not drawn) [Compound 147]	5 (Level 5: the growth inhibition rate is greater than 85%)
CCNc1c(Cl)c(F)nc(OC(C)C(=O)SC)c1Cl (stereo not drawn) [Compound 128]	5 (Level 5: the growth inhibition rate is greater than 85%)
COC(=O)C(C)SC(=O)C(C)Oc1nc(F)c(Cl)c(N)c1Cl (stereo not drawn) [Compound 95]	5 (Level 5: the growth inhibition rate is greater than 85%)

System: Leptochloa chinensis
Experiment: as above
Type: in vivo
Details: post-emergence spray, after 3 weeks, fresh weight inhibition
How it was run: as §1

Structure (SMILES)	Activity level (growth inhibition rate) Leptochloa chinensis
CCCCC(C)SC(=O)C(C)Oc1nc(F)c(Cl)c(N)c1Cl (stereo not drawn) [Compound 151]	5 (Level 5: the growth inhibition rate is greater than 85%)
COC(=O)C(NC(=O)OC(C)(C)C)SC(=O)C(C)Oc1nc(F)c(Cl)c(N)c1Cl (stereo not drawn) [Compound 104]	5 (Level 5: the growth inhibition rate is greater than 85%)
CSC(=O)C(C)Oc1nc(F)c(Cl)c(NC(C)=O)c1Cl (stereo not drawn) [Compound 129]	5 (Level 5: the growth inhibition rate is greater than 85%)
CC(Oc1nc(F)c(Cl)c(N)c1Cl)C(=O)SC(C)C(C)C (stereo not drawn) [Compound 147]	5 (Level 5: the growth inhibition rate is greater than 85%)
CCNc1c(Cl)c(F)nc(OC(C)C(=O)SC)c1Cl (stereo not drawn) [Compound 128]	5 (Level 5: the growth inhibition rate is greater than 85%)
COC(=O)C(C)SC(=O)C(C)Oc1nc(F)c(Cl)c(N)c1Cl (stereo not drawn) [Compound 95]	5 (Level 5: the growth inhibition rate is greater than 85%)

System: Monochoria vaginalis
Experiment: as above
Type: in vivo
Details: post-emergence spray, after 3 weeks, fresh weight inhibition
How it was run: as §1

Structure (SMILES)	Activity level (growth inhibition rate) Monochoria Vaginalis
CCCCC(C)SC(=O)C(C)Oc1nc(F)c(Cl)c(N)c1Cl (stereo not drawn) [Compound 151]	5 (Level 5: the growth inhibition rate is greater than 85%)
COC(=O)C(NC(=O)OC(C)(C)C)SC(=O)C(C)Oc1nc(F)c(Cl)c(N)c1Cl (stereo not drawn) [Compound 104]	5 (Level 5: the growth inhibition rate is greater than 85%)
CSC(=O)C(C)Oc1nc(F)c(Cl)c(NC(C)=O)c1Cl (stereo not drawn) [Compound 129]	5 (Level 5: the growth inhibition rate is greater than 85%)
CC(Oc1nc(F)c(Cl)c(N)c1Cl)C(=O)SC(C)C(C)C (stereo not drawn) [Compound 147]	5 (Level 5: the growth inhibition rate is greater than 85%)
CCNc1c(Cl)c(F)nc(OC(C)C(=O)SC)c1Cl (stereo not drawn) [Compound 128]	5 (Level 5: the growth inhibition rate is greater than 85%)
COC(=O)C(C)SC(=O)C(C)Oc1nc(F)c(Cl)c(N)c1Cl (stereo not drawn) [Compound 95]	5 (Level 5: the growth inhibition rate is greater than 85%)

System: Setaria viridis
Experiment: as above
Type: in vivo
Details: post-emergence spray, after 3 weeks, fresh weight inhibition
How it was run: as §1

Structure (SMILES)	Activity level (growth inhibition rate) Setaria viridis
CCCCC(C)SC(=O)C(C)Oc1nc(F)c(Cl)c(N)c1Cl (stereo not drawn) [Compound 151]	5 (Level 5: the growth inhibition rate is greater than 85%)
COC(=O)C(NC(=O)OC(C)(C)C)SC(=O)C(C)Oc1nc(F)c(Cl)c(N)c1Cl (stereo not drawn) [Compound 104]	5 (Level 5: the growth inhibition rate is greater than 85%)
CSC(=O)C(C)Oc1nc(F)c(Cl)c(NC(C)=O)c1Cl (stereo not drawn) [Compound 129]	5 (Level 5: the growth inhibition rate is greater than 85%)
CC(Oc1nc(F)c(Cl)c(N)c1Cl)C(=O)SC(C)C(C)C (stereo not drawn) [Compound 147]	5 (Level 5: the growth inhibition rate is greater than 85%)
CCNc1c(Cl)c(F)nc(OC(C)C(=O)SC)c1Cl (stereo not drawn) [Compound 128]	5 (Level 5: the growth inhibition rate is greater than 85%)
COC(=O)C(C)SC(=O)C(C)Oc1nc(F)c(Cl)c(N)c1Cl (stereo not drawn) [Compound 95]	5 (Level 5: the growth inhibition rate is greater than 85%)
